The text below walks through data of patent US20210317134A1, “UBIQUITIN-SPECIFIC-PROCESSING PROTEASE 7 (USP7) MODULATORS AND USES THEREOF” (RAPT THERAPEUTICS, INC., priority 2019, published 2021).

A value given as a limit tells only on which side of the number the result lay.

The test deals with USP7 (Homo sapiens, UniProt Q93009). Put plainly: USP7 inhibitory potency (Table 1). It is filed as biochemical.
Chain of USP7 (Q93009 whole entry): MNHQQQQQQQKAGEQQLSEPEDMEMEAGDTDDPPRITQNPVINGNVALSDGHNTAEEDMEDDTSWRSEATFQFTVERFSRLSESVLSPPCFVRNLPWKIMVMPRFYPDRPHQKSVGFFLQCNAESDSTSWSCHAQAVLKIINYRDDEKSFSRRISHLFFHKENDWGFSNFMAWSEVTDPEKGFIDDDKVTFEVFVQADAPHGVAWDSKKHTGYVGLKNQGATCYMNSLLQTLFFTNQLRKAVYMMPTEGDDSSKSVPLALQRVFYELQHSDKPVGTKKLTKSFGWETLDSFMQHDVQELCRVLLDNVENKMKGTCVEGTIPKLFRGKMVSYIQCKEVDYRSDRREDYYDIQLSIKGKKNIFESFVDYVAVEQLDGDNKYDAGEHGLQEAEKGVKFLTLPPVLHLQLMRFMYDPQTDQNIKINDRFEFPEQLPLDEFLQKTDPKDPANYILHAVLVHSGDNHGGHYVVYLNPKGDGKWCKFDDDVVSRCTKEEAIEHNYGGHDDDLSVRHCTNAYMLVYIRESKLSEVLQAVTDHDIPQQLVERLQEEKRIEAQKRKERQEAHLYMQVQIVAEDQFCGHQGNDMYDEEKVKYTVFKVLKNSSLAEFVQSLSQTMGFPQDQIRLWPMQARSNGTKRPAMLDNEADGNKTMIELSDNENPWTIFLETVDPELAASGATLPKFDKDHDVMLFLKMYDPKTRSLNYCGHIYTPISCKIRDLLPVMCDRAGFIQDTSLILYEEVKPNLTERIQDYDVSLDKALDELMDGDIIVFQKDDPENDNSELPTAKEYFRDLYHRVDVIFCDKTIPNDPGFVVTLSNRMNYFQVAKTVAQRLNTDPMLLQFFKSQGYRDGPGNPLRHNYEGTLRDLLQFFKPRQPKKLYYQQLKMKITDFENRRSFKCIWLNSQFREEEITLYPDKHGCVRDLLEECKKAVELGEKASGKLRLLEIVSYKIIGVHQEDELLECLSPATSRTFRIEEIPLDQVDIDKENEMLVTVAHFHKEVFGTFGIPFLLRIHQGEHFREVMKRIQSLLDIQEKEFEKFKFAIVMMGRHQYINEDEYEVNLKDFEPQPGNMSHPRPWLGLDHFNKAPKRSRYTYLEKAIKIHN
The IC50 is the concentration that gives 50% inhibition. Lower therefore signals higher potency. With `CCC(O)c1cc2ncnc(-c3cc(Cl)cc4c3O[C@@H](c3onc5c3CNCC5)C4)c2s1` (stereo partly drawn) [drawing 1579, 1-(4-((R)-5-chloro-2-(4,5,6,7-tetrahydroisoxazolo[4,3-c]pyridin-3-yl)-2,3-dihydrobenzofuran-7-yl)thieno[3,2-d]pyrimidin-6-yl)propan-1-ol], the IC50 is < 1000 nM.

With `CCC(O)c1cc2ncnc(-c3cc(Cl)cc4c3O[C@@H](c3onc5c3CNCC5)C4)c2s1` (stereo partly drawn) [drawing 1596, 1-(4-((R)-5-chloro-2-(4,5,6,7-tetrahydroisoxazolo[4,3-c]pyridin-3-yl)-2,3-dihydrobenzofuran-7-yl)thieno[3,2-d]pyrimidin-6-yl)propan-1-ol], the IC50 was < 1000 nM.

As to `CCC(O)c1cc2nccc(-c3cc(Cl)cc4c3O[C@@H](c3onc5c3CNCC5)C4)c2o1` (stereo partly drawn) [drawing 1618, 1-(7-((R)-5-chloro-2-(4,5,6,7-tetrahydroisoxazolo[4,3-c]pyridin-3-yl)-2,3-dihydrobenzofuran-7-yl)furo[3,2-b]pyridin-2-yl)propan-1-ol], the IC50 is < 1000 nM.

In turn, `COC(=O)c1ccc2c(-c3cc(Cl)cc4c3OC(C(=O)N3CCNCC3)C4)ccnc2c1` (stereo not shown) [methyl 4-(5-chloro-2-(piperazine-1-carbonyl)-2,3-dihydrobenzofuran-7-yl)quinoline-7-carboxylate] returned an IC50 of 10000 to 30000 nM.
